According to US11654169B2, “Methods for protecting skin and/or promoting wound healing” (SINPHAR PHARMACEUTICAL CO., LTD., priority 2016, dated 2023):

Tests used:
Format in all cases: cell-based
[1] = test system: normal primary human skin fibroblastic cells; assay: Intracellular content of collagen in fibroblasts (Western blot and ELISA), relative to control; details: 48 hours; for relative intracellular content of collagen: control group = 100%
Experimental: (§1) The normal primary human skin fibroblastic cells (purchased from ATCC) were cultivated in a Fibroblast Growth Medium. The cells thus provided were used in the following experiments. […]
(§2) The normal primary human skin fibroblastic cells provided by [Preparation Example C] were divided into 37 groups and were respectively cultivated with the following medium for 48 hours: • 1. Group 1: a Fibroblast Growth Medium • 2. Group 2-1 to 2-3: Fibroblast Growth Media containing the pachymic acid (PA) provided by [Preparation Example B] at a concentration of 0.01, 0.1 and 1 μM, respectively; • 3. Group 3-1 to 3-3: Fibroblast Growth Media containing the dehydropachymic acid (DPA) provided by [Preparation Example B] at a concentration of 0.01, 0.1 and 1 μM, respectively; • 4. Group 4-1 to 4-3: Fibroblast Growth Media containing the tumulosic acid (TA) provided by [Preparation Example B] at a concentration of 0.01, 0.1 and 1 μM, respectively; • 5. Group 5-1 to 5-3: Fibroblast Growth Media containing the dehydrotumulosic acid (DTA) provided by [Preparation Example B] at a concentration of 0.01, 0.1 and 1 μM, respectively; • 6. Group 6-1 to 6-3: Fibroblast Growth Media containing the polyporenic acid C (PAC) provided by [Preparation Example B] at a concentration of 0.01, 0.1 and 1 μM, respectively; • 7. Group 7-1 to 7-3: Fibroblast Growth Media containing the 3-epi-dehydrotumulosic acid (EDTA) provided by [Preparation Example B] at a concentration of 0.01, 0.1 and 1 μM, respectively; • 8. Group 8-1 to 8-3: Fibroblast Growth Media containing the dehydrotrametenolic acid (DTTA) provided by [Preparation Example B] at a concentration of 0.01, 0.1 and 1 μM, respectively; • 9. Group 9-1 to 9-3: Fibroblast Growth Media containing the trametenolic acid (TTA) provided by [Preparation Example B] at a concentration of 0.01, 0.1 and 1 μM, respectively; • 10. Group 10-1 to 10-3: Fibroblast Growth Media containing the poricoic acid A (PAA) provided by [Preparation Example B] at a concentration of 0.01, 0.1 and 1 μM, respectively; • 11. Group 11-1 to 11-3: Fibroblast Growth Media containing the dehydroeburicoic acid (DEA) provided by [Preparation Example B] at a concentration of 0.01, 0.1 and 1 μM, respectively; • 12. Group 12-1 to 12-3: Fibroblast Growth Media containing the poricoic acid B (PAB) provided by [Preparation Example B] at a concentration of 0.01, 0.1 and 1 μM, respectively; • 13. Group 13-1 to 13-3: Fibroblast Growth Media containing the eburicoic acid (EA) provided by [Preparation Example B] at a concentration of 0.01, 0.1 and 1 μM, respectively.
Thereafter, the cell medium of each group was collected and concentrated. Then, the intracellular content of collagen was measured and analyzed by Western blot and enzyme-linked immunosorbent assay (ELISA).

[2] = test system: normal primary human skin fibroblastic cells; assay: Content of collagen in cell medium (extracellular collagen) of fibroblasts (Western blot and ELISA), relative to control; details: 48 hours; for relative content of collagen in the medium (extracellular content of collagen): control group = 100%; for extracellular contents of collagen (collagen in cell medium) as compared to the control group (in words): treated cells vs control group
Experimental: The normal primary human skin fibroblastic cells (purchased from ATCC) were cultivated in a Fibroblast Growth Medium. The cells thus provided were used in the following experiments.
The normal primary human skin fibroblastic cells provided by [Preparation Example C] were divided into 4 groups and were respectively cultivated with the following medium for 48 hours: • 1. Group I: a Fibroblast Growth Medium; • 2.
(§3) Thereafter, the cell medium of each group was collected and concentrated. Then, the intracellular content of collagen, the content of collagen in cell medium (i.e., extracellular content of collagen) and the content of hyaluronic acid in cell medium were measured and analyzed by Western blot and enzyme-linked immunosorbent assay (ELISA).
as §2
The content of collagen in the medium of each group (i.e., extracellular content of collagen) was provided.

[3] = test system: normal primary human skin fibroblastic cells; assay: Content of hyaluronic acid in cell medium of fibroblasts (Western blot and ELISA), relative to control; details: 48 hours; for relative content of hyaluronic acid in the medium (extracellular content of hyaluronic acid): control group = 100%
Experimental: as §1, §3, §2
The content of hyaluronic acid in the medium of each group (i.e., extracellular content of hyaluronic acid) was provided.

SMILES	relative intracellular content of collagen ([1]; 0.01 μM)	relative intracellular content of collagen ([1]; 0.1 μM)	relative intracellular content of collagen ([1]; 1 μM)	relative content of collagen in the medium (extracellular content of collagen) ([2]; 0.01 μM)	relative content of collagen in the medium (extracellular content of collagen) ([2]; 0.1 μM)	relative content of collagen in the medium (extracellular content of collagen) ([2]; 1 μM)	relative content of hyaluronic acid in the medium (extracellular content of hyaluronic acid) ([3]; 0.01 μM)	relative content of hyaluronic acid in the medium (extracellular content of hyaluronic acid) ([3]; 0.1 μM)	relative content of hyaluronic acid in the medium (extracellular content of hyaluronic acid) ([3]; 1 μM)	extracellular contents of collagen (collagen in cell medium) as compared to the control group (in words) [2]	contents of hyaluronic acid as compared to the control group (in words) ([3]; treated cells vs control group)	contents of hyaluronic acid, ingredients singled out as stronger (in words) ([3]; treated cells vs control group, compared with the other active ingredients)	intracellular contents of collagen as compared to the control group (in words) ([1]; treated cells vs control group)
C=C(CC[C@@H](C(=O)O)[C@H]1[C@H](O)C[C@@]2(C)C3=C(CC[C@]12C)[C@@]1(C)CC[C@H](OC(C)=O)C(C)(C)[C@@H]1CC3)C(C)C [Pachymic acid (PA), pachymic acid]	172%	235%	211%	117%	116%	106%	98%	132%	140%				
C=C(CC[C@@H](C(=O)O)[C@H]1[C@H](O)C[C@@]2(C)C3=CC[C@H]4C(C)(C)[C@H](O)CC[C@]4(C)C3=CC[C@]12C)C(C)C [3-epi-dehydrotumulosic acid (EDTA), 3-epi-dehydrotumulosic acid]	87%	100%	80%	98%	104%	111%	105%	122%	140%	significantly enhanced	significantly enhanced	enhanced more significantly	
CC(C)=CCC[C@@H](C(=O)O)[C@H]1CC[C@@]2(C)C3=C(CC[C@]12C)[C@@]1(C)CC[C@H](O)C(C)(C)[C@@H]1CC3 [Trametenolic acid (TTA), trametenolic acid]	95%	79%	79%	141%	149%	142%	83%	108%	125%	significantly enhanced	significantly enhanced		
CC(C)=CCC[C@@H](C(=O)O)[C@H]1CC[C@@]2(C)C3=CC[C@H]4C(C)(C)[C@@H](O)CC[C@]4(C)C3=CC[C@]12C [Dehydrotrametenolic acid (DTTA), dehydrotrametenolic acid]	190%	174%	118%	117%	158%	131%	99%	87%	108%	significantly enhanced			significantly enhanced
